These results are taken from patent publication US20220193016A1, “COMPOSITIONS, METHODS AND USES FOR TARGETING C-TERMINAL BINDING PROTEIN (CtBP) IN [sequence] BRAIN INJURY” (THE REGENTS OF THE UNIVERSITY OF COLORADO, A BODY CORPORATE, priority 2019, published 2022).

In data set [1] the test system is repetitive mild TBI (two 0.5 J impacts 24 h apart). As to the kind of experiment: Repetitive mild TBI in mice (NSS, brain mRNA). It counts as in vivo, mouse. On the procedure: In another exemplary experiment, mice (n=4 per group) were subjected to a single mild TBI of 0.5 J dose at 0 h (sTBI) or two doses of 0.5 J mild TBI (rTBI) that were 24 h apart, at 0 h and 24 h. Animals with rTBI were separated into three. groups untreated, intraperitoneally injected with MTOB (860 mg/kg) or NSC95397 (1.5 mg/kg) at 1 h and 18 h. Animals were tested right before the two MTOB injection (0 h and 18 h) and then daily for neurobehavioral preformance. At the end point (72 h), the brain and circulating leukocytes were collected for molecular and immunostaining analyses.
FIGS. 9A-9D. Administration of MTOB and NSC95397 after a single mild TBI effectively subdues neuroinflammation and improves neurological outcome elicited by a second mild TBI. Mice (n=4 per group) were subjected to a single mild TBI of 0.5 J dose at 0 h (sTBI) or two doses of 0.5 J mild TBI, 24 h apart, at 0 h and 24 h (rTBI). The three rTBI groups were either untreated, treated with MTOB (860 mg/kg) or NSC95397 (1.5 mg/kg) at […] and 18 h. (9A) Neurobehavioral severity scale (NSS) analysis was performed at the indicated time points after the first TBI; the scores were shown as mean+SD. (9B) Bar graphs represent mean±SD of fold changes in mRNA levels in the brain. (9A) Experimental timeline. Mice received a single head impact of 0.5 J energy (1×TBI), or two 0.5 J impacts (2×TBI) spaced 24 h apart. […]

In data set [2] the test system is imiquimod-induced psoriasis-like skin inflammation. As to the kind of experiment: Imiquimod animal model of psoriasis-like skin inflammation. The class given is in vivo, mice. To be noted: peptides topically daily from day 3 of imiquimod course; day 7.
In data set [3] the test system is DNFB-induced contact hypersensitivity (CHS). As to the kind of experiment: DNFB mouse model of contact hypersensitivity. The class given is in vivo. To be noted: peptides topically on the ear day 6 through day 9. An excerpt:
In another exemplary method, FIG. 14A-14B illustrate the effectiveness of additional CtBP inhibiting peptides in reducing skin inflammation caused by sensitization and elicitation with the hapten 2,4-dinitrofluorobenzene (DNFB). Peptides MH-3, MH-4, MH-6 and MH-7 were derived from MH-2, all containing a polyarginine sequence to promote membrane transduction, with variations at the linker or flanking sequence of the PIDLS motif. […] The thickness of the epidermis of the ear is indicated by the red square bracket. It is noted that the DNFB-induced CHS in mice is an established model for human allergic contact dermatitis, both of which are T cell-mediated delayed hypersensitivity responses. Mice (n=3) were sensitized on day 1 with […] of 0.5% DNFB on the abdomen surface and challenged on day 6 with […] of 0.5% DNFB on both sides of the ears to trigger T memory cell-mediated hypersensitivity reaction. Peptides ([…]) were topically administered on both sides of the ear 1 h after the DNFB application on day 6 through day 9. Ear swelling and reddening were examined daily till the end point (day 9).

The subject of data set [4] is LPS-activated primary microglia. In words: LPS-induced expression of CtBP target genes in primary microglia (mRNA). It counts as cell-based, mouse. To be noted: for LPS-induced expression of the CtBP-controlled inflammatory genes: primary microglia from neonatal mouse brain, 20 μM peptide 2 h, then 200 ng/mL LPS 2 h, mRNA.
Data set [5] deals with LPS-activated primary astrocytes. As to the kind of experiment: LPS-induced expression of CtBP target genes in primary astrocytes (mRNA). To be noted: primary astrocytes from neonatal mouse brain, data not shown. It counts as cell-based.
The subject of data set [6] is isolated mouse hippocampus. As to the kind of experiment: LPS-induced expression of CtBP target genes in isolated mouse hippocampus. To be noted: 20 mM Pep1-E1As 2 h, then 200 ng/mL LPS 2 h; mRNA, FIG. 6C. As for the experimental part:
In another exemplary method, a CtBP inhibitor was analyzed for effects on CtBP target gene expression using methods disclosed herein. […] FIG. 6A represents primary microglia that were incubated with 20 μM Pep1-E1As for 2 hours followed by 2 hours of treatment with 200 ng/mL LPS. Bar graphs represent mean±SD of fold changes in mRNA levels. […] FIG. 6C represents isolated mouse hippocampus that were incubated with […] Pep1-E1As for 2 hours followed by 2 hours treatment with 200 ng/mL LPS. Bar graphs represent mean±SD of fold changes in mRNA levels.

The subject of data set [7] is BV2 cells. As to the kind of experiment: Expression of CtBP target genes in LPS-activated BV2 microglia cell line (RT-qPCR). The class given is cell-based, mouse. To be noted: siRNA 24 h, then LPS 200 ng/ml 6 h. On the procedure:
In one exemplary method, BV2 cells were treated with CtBP-specific siRNAs 24 hours prior to a 6-hour treatment with LPS. In this example, siCtBP1 (SEQ. NO.1) and siCtBP2 (SEQ. NO.2) were used. Relative mean mRNA levels (±SD) were determined by RT-qPCR, performed in triplicate and in two independent experiments.
(§1) Murine RAW264.7 (A) and BV2 (B) cells were transfected with siRNAs specific for CtBP1 and CtBP2 or scrambled control siRNAs for a period of 24 h, followed by LPS stimulation (200 ng/ml) for 6 h. Total RNA was extracted and analyzed by the RT-qPCR. Relative mRNA expression was normalized to that of ACTB and depicted as fold changes vs. scrambled siRNA transfected and non-stimulated control (Untreated). Data are presented as mean±SD. n=3; **p<0.01, ***p<0.001. FIG. 2C illustrates LPS-induced binding of CtBP1, CtBP2 and p300 to the IL1β, IL6, TNFα and S100A8 gene promoters. Chromatin fractions from control and LPS-treated BV2 cells were precipitated with antibodies specific to CtBP1, CtBP2 and p300. Bars represent fold changes of relative ChIP signals normalized to the respective controls.
(§2) In this exemplary study, cells were pretreated with 0.5 or 2.5 mM MTOB for 2 h or 18 h, then with 100 ng/mL LPS for an additional 2 h before being harvested for analysis, using RT-qPCR. Bar graphs represent mean±SD of fold changes in mRNA levels. […]

The test system of data set [8] is RAW264.7 cells. As to the kind of experiment: Expression of CtBP target genes in LPS-activated RAW264.7 macrophage cell line (RT-qPCR). The class given is cell-based, mouse. To be noted: siRNA 24 h, then LPS 200 ng/ml 6 h. As for the experimental part: as §1, §2
In another exemplary method as illustrated in FIG. 11 relative CtBP1, CtBP2, IL6, S100A8, NRLP3, E-cadherin and Bax mRNA levels in RAW264.7 macrophages stimulated with 100 ng/ml of LPS for 6 h before post-treatment with MTOB for 2 h and at dosages of 0.5 mM and 2.5 mM MTOB sodium salt were analyzed. […]

As for `O=C1C(SCCO)=C(SCCO)C(=O)c2ccccc21` [NSC95397, 2,3-Bis[(2-hydroxyethyl)thio]-1,4-naphthoquinone], in data set [1] (i.p. MTOB 860 mg/kg or NSC95397 1.5 mg/kg at 1 h and 18 h, 72 h after first injury), the “inflammatory gene induction (brain mRNA) after repetitive mild TBI” value is on record as “significantly reduced”. Also, the “neurobehavioral defects (NSS) after repetitive mild TBI” value in data set [1] (i.p. MTOB 860 mg/kg or NSC95397 1.5 mg/kg at 1 h and 18 h after first injury) is “significantly reduced”.

With “MH-2: SEQ ID NO. 19 RRRRRRRRGGPIDLSKKA (18 aa) (Synthetic Sequence - MH-2)”, the “imiquimod-induced epidermal proliferation (H&E, epidermis thickness)” value in data set [2] is recorded as “as effective in reducing imiquimod-induced epidermal proliferation as the prototype Pep1-E1A”. Further, in data set [3], the “epidermal hyperproliferation of the ear” value is “reducing epidermal hyperproliferation and immunocyte infiltration”; the “immunocyte infiltration (CD45 immunohistochemistry)” value is “reducing epidermal hyperproliferation and immunocyte infiltration”.

Turning to “Pep1-E1AWT: SEQ ID NO. 5 GSHMKETWWETWWTEWSQPKKKRKVLEEPGQPLDLSCKRPRDYKDDDDK; FLAG-tagged Pep1 fusion with wild-type E1A sequence”, the “LPS-induced expression of the CtBP-controlled inflammatory genes” value in data set [4] is listed as “inhibited LPS-induced expression”; in data set [4] (listed as Pep1-E1A), “strongly suppressed”; in data set [5], “inhibited LPS-induced expression”; in data set [5] (listed as Pep1-E1A) it was “strongly suppressed”. For the same molecule, in data set [4] (primary microglia, FIG. 6A right panel), the “basal mRNA levels of CDH1 and BAX (genes repressed by CtBPs)” value was “increased the basal mRNA levels”. In addition, the “expression of CtBP target gene in LPS-activated isolated mouse hippocampus” value in data set [6] was “inhibition of expression of CtBP target gene”. Also, the “imiquimod-induced epidermal proliferation (H&E, epidermis thickness)” value in data set [2] is “reducing imiquimod-induced epidermal proliferation”.

For “siRNAs specific for CtBP1 and CtBP2: simultaneous use of mouse siCtBP1 (SEQ. NO.1) and siCtBP2 (SEQ. NO.2) (chain 1 UCUUCCACAGUGUGACUGCGUUAUUUU; chain 2 GCCUUUGGAUUCAGCGUCAUAUUU; listed as RNA, chemistry not given here)”, the “mRNA expression of proinflammatory genes after knockdown” value in data set [7] and in data set [8] was “suppresses mRNA expression of proinflammatory genes” throughout.
